{
  "source": "patent US20090062295A1",
  "about": "“Pharmaceutical Products” (MITSUBISHI PHARMA CORPORATION, priority 2005, published 2009)",
  "assay": "Influence of pH on content of the compound in solution after storage (Example 1, HPLC)",
  "format": "physicochemical",
  "settings": "1 mg/mL in Britton-Robinson buffer at pH 2, 3, 4, 5 and 6, 1 month storage at 25 or 40° C.",
  "procedure": "A solution was prepared so as to contain the compound at 1 mg/mL of a solvent, and divided as aliquots in clear test tubes and the tubes were tightly sealed. The Britton-Robinson buffer was used as the solvent to prepare sample solutions at pH 2, 3, 4, 5 and 6.\nAfter 1 month storage of these sample solutions under each temperature condition of 25 or 40° C., the contents of the compound were determined by HPLC under the following measurement conditions.\nSample solution: 1 mL of specimen/25 mL of mobile phase\nTemperature: Room temperature Mobile phase: 1 M Et3N (adjusted at pH 8 with AcOH):CH3CN:H2O=50:250:700 Flow rate: […]\nLoaded volume: 20 μL Quantification method: Corrected area percentage",
  "data": [
    {"smiles": "Cl.O.O.O.O=C1CCC(c2ccc(Nc3ccncc3)cc2)=NN1", "note": "[the compound, 6-[4-(4-pyridylamino)phenyl]-4,5-dihydro-3(2H)-pyridazinone hydrochloride trihydrate]", "values": [
      {"measurement": "remaining ratio of the compound", "result": "highest at pH 5 to 6"}
    ]}
  ]
}
